Measured values: patent US20260250289A1, “BICYCLIC HETEROCYCLES AND THEIR USE AS WRN INHIBITORS” (Novartis AG, priority 2022, published 2026)

Assays:
DLD1-WRN-KO cells = test: Proliferation assay DLD1-WRN-KO (CellTiterGlo, off-target effects); assay type: cell-based; details: 96 hours, geometric mean of at least 2
Method: The WRN-knockdown insensitive colon carcinoma cell line DLD-1 (RRID: CVCL_0248) was obtained from the Korean Cell Line Bank (KCLB), and used to generate a derivative in which the endogenous WRN gene copies were knocked out by CRISPR-mediated editing using standard CRISPR methods. The resulting cell line, DLD1-WRN-KO, was used to assess potential off-target compound effects. […]
Three replicate plates were prepared for each compound treatment condition. In addition, one plate (termed “day 0”) was prepared to quantify the number of viable cells at the time of compound addition. Following overnight incubation at 37° C. in a humidified 5% CO2 atmosphere, eight 3-fold serial dilutions of a given compound stock (obtained at a concentration of 10 mM in DMSO and stored at 4° C.) were dispensed directly into each of the triplicate assay plates using a HP 300D non-contact Digital Dispenser (TECAN). The final concentration of DMSO was normalized to 0.1% in all wells. 96 hours after compound addition, cellular ATP levels as a surrogate for cell viability was assessed following addition of 50 microliters CellTiterGlo (Promega Cat #G7573) reagent and luminescence quantification on a MPLEX multi-mode plate-reader (TECAN) following a 10 minute incubation at room temperature. The number of viable cells in the “day 0” plate were quantified identically on the day of compound addition.
For data analysis, the assay background signal that was determined in wells containing medium, but no cells, was subtracted from all other data points prior to further calculations. The extent of growth inhibition and potential cell kill was assessed by comparing the ATP levels (measured using CellTiterGlo, Promega) in compound-treated cells with those present at the time of compound addition. […] 100%, 0% and −100% signify absence of growth inhibition, growth stasis, and complete cell kill, respectively. Compound concentrations leading to half-maximal growth inhibition (GI50) and residual cell viability at the highest tested compound concentration (Data (cmax), expressed in percent) were routinely calculated. Data analysis can also be carried out using commercially available software designed to derive IC50 values using 4-parameter fits (e.g. GraphPad Prism, XL fit). The reported GI50 values are the geometrical means of at least 2 independent replicates.

[1] = biological target: T1, WRN helicase (aa N517-P1238) (Homo sapiens, UniProt Q14191); test: WRN ATPase assay (DNA dependent ATP hydrolysis, ADP-Glo); assay type: biochemical; details: 3 hours pre-incubation, 300 micromolar ATP, FLAP26 DNA; geometric mean of at least 2
T1 construct: The core helicase motif of the WRN protein (aa N517-P1238) was produced for this assay; His (N); ZZ (N); 3C protease cleavage site (N); made in house; host or cells: Sf21 insect cells (baculovirus; virus and BIICs made in SF9)
T1 sequence (Q14191 517-1238): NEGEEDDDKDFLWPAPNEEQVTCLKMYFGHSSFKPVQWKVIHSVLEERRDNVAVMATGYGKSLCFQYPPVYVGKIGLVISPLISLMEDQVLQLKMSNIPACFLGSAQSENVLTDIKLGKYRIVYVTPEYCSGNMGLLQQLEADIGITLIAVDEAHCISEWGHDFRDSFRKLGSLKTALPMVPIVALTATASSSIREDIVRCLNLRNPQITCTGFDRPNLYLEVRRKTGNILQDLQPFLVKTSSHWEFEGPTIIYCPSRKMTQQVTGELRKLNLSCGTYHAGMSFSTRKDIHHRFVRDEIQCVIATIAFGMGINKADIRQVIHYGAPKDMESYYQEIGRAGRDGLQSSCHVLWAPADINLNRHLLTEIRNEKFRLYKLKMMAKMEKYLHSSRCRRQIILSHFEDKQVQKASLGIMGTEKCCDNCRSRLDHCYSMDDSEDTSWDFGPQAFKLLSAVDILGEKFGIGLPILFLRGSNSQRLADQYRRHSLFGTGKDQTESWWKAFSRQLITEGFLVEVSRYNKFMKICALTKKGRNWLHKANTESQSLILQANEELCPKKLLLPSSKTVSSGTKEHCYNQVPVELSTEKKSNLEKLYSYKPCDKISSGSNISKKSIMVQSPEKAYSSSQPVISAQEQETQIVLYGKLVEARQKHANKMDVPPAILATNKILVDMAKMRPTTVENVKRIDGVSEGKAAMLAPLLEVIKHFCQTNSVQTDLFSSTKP
Description: An ATPase assay was set up to measure the DNA dependent ATP hydrolysis activity of WRN helicase. This assay was used also to assess the inhibition properties of compounds of the invention on DNA dependent WRN ATPase activity.
The core helicase motif of the WRN protein (aa N517-P1238) was produced for this assay (protein production as described above). […] The ADP-Glo assay kit (Promega, Madison, WI) allowing the quantification of ADP produced in ATP hydrolysis reactions was used for setting up this assay.
Time course experiments were first performed in order to determine the best enzymatic assay conditions (including buffer conditions, reaction time and concentrations of protein, ATP and DNA substrates). A typical reaction consists of 10 nM WRN protein, 0.2 nM FLAP26, and 300 micromolar ATP in the following assay buffer: 30 mM Tris pH7.5, 2 mM MgCl2, 0.02% BSA, 50 mM NaCl, 0.1% pluronic F127 prepared in DNAse free water.
To evaluate the inhibition properties of compounds of the invention, serial dilutions were prepared in DMSO (10 half log dilutions from a 10 mM DMSO solution). […] The reaction was stopped with the addition of 5 microliters of the first ADP-Glo reagent and incubated for one hour to remove the excess amount of ATP. Afterwards, 10 microliters of ATP detection reagent was added and incubated for an additional hour before reading. Luminescence output was recorded using Tecan 1000 reader, with 5 minutes delay before reading. Each concentration of compound was tested in duplicates in the assay plate.
Following normalization of activity values for the wells to % inhibition (% inhibition=[(high control-sample)/(high control-low control)]×100), IC50 fitting was carried out from the duplicate determinations present on each plate according to [4]. Data analysis can also be carried out using commercially available software designed to derive IC50 values using 4-parameter fits (e.g. GraphPad Prism, XL fit). The reported IC50 values are the geometrical means of at least 2 independent replicates.

GI50 (DLD1-WRN-KO cells) | IC50 [1] | SMILES
> 10000 nM | 40 nM | CC(=O)N1CCN(c2nc3n(CC(=O)Nc4ccc(Cl)cc4)c(C)c(N4CCN(C(=O)c5nc[nH]c5C#N)CC4)c(=O)n3n2)CC1 [Example 7, 2-(2-(4-acetylpiperazin-1-yl)-6-(4-(5-cyano-1H-imidazole-4-carbonyl)piperazin-1-yl)-5-methyl-7-oxo-[1,2,4]triazolo[1,5-a]pyrimidin-4(7H)-yl)-N-(4-chlorophenyl)acetamide]
> 10000 nM |  | CC(=O)N1CCC(c2c(C)n(CC(=O)Nc3ccc(C(F)(F)F)cc3)c3nc(-c4ccccc4)nn3c2=O)CC1 [Example 143, 2-(6-(1-acetylpiperidin-4-yl)-5-methyl-7-oxo-2-phenyl-[1,2,4]triazolo[1,5-a]pyrimidin-4(7H)-yl)-N-(4-(trifluoromethyl)phenyl) acetamide]
5000 nM | 700 nM | CC(=O)N1CCN(c2c(C)n(CC(=O)Nc3ccc(Cl)c(Cl)c3)c3nc(C4=CCN(C(=O)OC5CC/C=C/CCC5)CC4)nn3c2=O)CC1 (stereo not drawn) [Example 93, (E)-cyclooct-4-en-1-yl 4-(6-(4-acetylpiperazin-1-yl)-4-(2-((3,4-dichlorophenyl)amino)-2-oxoethyl)-5-methyl-7-oxo-4,7-dihydro-[1,2,4]triazolo[1,5-a]pyrimidin-2-yl)-3,6-dihydropyridine-1(2H)-carboxylate]
8000 nM | 100 nM | Cc1c(N2CCN(C(=O)c3n[nH]c4ccccc34)CC2)c(=O)n2nc(C3=CCOCC3)nc2n1CC(=O)Nc1ccc(C(F)(F)F)cc1 [Example 154, 2-(6-(4-(1H-indazole-3-carbonyl)piperazin-1-yl)-2-(3,6-dihydro-2H-pyran-4-yl)-5-methyl-7-oxo-[1,2,4]triazolo[1,5-a]pyrimidin-4(7H)-yl)-N-(4-(trifluoromethyl)phenyl)acetamide]
> 10000 nM | 200 nM | CC(=O)N1CCN(c2c(C)n(CC(=O)Nc3ccc(C(F)(F)F)cc3)c3nc(N4CCCCC4)nn3c2=O)CC1 [Example 111, 2-(6-(4-acetylpiperazin-1-yl)-5-methyl-7-oxo-2-(piperidin-1-yl)-[1,2,4]triazolo[1,5-a]pyrimidin-4(7H)-yl)-N-(4-(trifluoromethyl)phenyl)acetamide]
900 nM | 200 nM | CC(=O)N1CCN(c2c(C)n(CC(=O)Nc3ccc(Cl)c(Cl)c3)c3nc(C4=CCN(C(=O)OC(C)(C)C)CC4)nn3c2=O)CC1 [Example 75, tert-butyl 4-(6-(4-acetylpiperazin-1-yl)-4-(2-((3,4-dichlorophenyl)amino)-2-oxoethyl)-5-methyl-7-oxo-4,7-dihydro-[1,2,4]triazolo[1,5-a]pyrimidin-2-yl)-5,6-dihydropyridine-1(2H)-carboxylate]
600 nM | 200 nM | CC(=O)N1CCN(c2c(C)n(CC(=O)Nc3ccc(Cl)c(C(F)(F)F)c3)c3nc(C4=CCN(C(=O)OC(C)(C)C)CC4)nn3c2=O)CC1 [Example 74, tert-butyl 4-(6-(4-acetylpiperazin-1-yl)-4-(2-((4-chloro-3-(trifluoromethyl)phenyl)amino)-2-oxoethyl)-5-methyl-7-oxo-4,7-dihydro-[1,2,4]triazolo[1,5-a]pyrimidin-2-yl)-5,6-dihydropyridine-1(2H)-carboxylate]
5000 nM | 500 nM | CCOC(=O)C#Cc1nc2n(CC(=O)Nc3ccc(C(F)(F)F)cc3)c(C)c(N3CCN(C(C)=O)CC3)c(=O)n2n1 [Example 116, ethyl 3-(6-(4-acetylpiperazin-1-yl)-5-methyl-7-oxo-4-(2-oxo-2-((4-(trifluoromethyl)phenyl)amino)ethyl)-4,7-dihydro-[1,2,4]triazolo[1,5-a]pyrimidin-2-yl)propiolate]
> 10000 nM | 70 nM | CC(=O)N1CCN(c2c(C)n(CC(=O)Nc3ccc(Cl)c(Cl)c3)c3nc(-c4ccc(CN(C)C(=O)CCN=[N+]=[N-])cc4)nn3c2=O)CC1 [Example 86, N-(4-(6-(4-acetylpiperazin-1-yl)-4-(2-((3,4-dichlorophenyl)amino)-2-oxoethyl)-5-methyl-7-oxo-4,7-dihydro-[1,2,4]triazolo[1,5-a]pyrimidin-2-yl)benzyl)-3-azido-N-methylpropanamide]
5000 nM | 100 nM | COc1cc(F)cc(C(=O)N2CCN(c3c(C)n(CC(=O)Nc4ccc(C(F)(F)F)cc4)c4nc(C5=CCOCC5)nn4c3=O)CC2)c1N [Example 153, 2-(6-(4-(2-amino-5-fluoro-3-methoxybenzoyl)piperazin-1-yl)-2-(3,6-dihydro-2H-pyran-4-yl)-5-methyl-7-oxo-[1,2,4]triazolo[1,5-a]pyrimidin-4(7H)-yl)-N-(4-(trifluoromethyl)phenyl)acetamide]
> 10000 nM | 80 nM | CC(=O)N1CCN(c2nc3n(CC(=O)Nc4ccc(Cl)cc4)c(C)c(N4CCN(C(=O)c5cnon5)CC4)c(=O)n3n2)CC1 [Example 9, 2-(6-(4-(1,2,5-oxadiazole-3-carbonyl)piperazin-1-yl)-2-(4-acetylpiperazin-1-yl)-5-methyl-7-oxo-[1,2,4]triazolo[1,5-a]pyrimidin-4(7H)-yl)-N-(4-chlorophenyl)acetamide]
> 10000 nM | 600 nM | CC(=O)N1CCN(c2c(C)n(CC(=O)Nc3ccc(C(F)(F)F)cc3)c3nc(C4=CCC5(CCO5)CC4)nn3c2=O)CC1 (stereo not drawn) [Example 117, 2-(6-(4-acetylpiperazin-1-yl)-5-methyl-7-oxo-2-(1-oxaspiro[3.5]non-6-en-7-yl)-[1,2,4]triazolo[1,5-a]pyrimidin-4(7H)-yl)-N-(4-(trifluoromethyl)phenyl)acetamide]
> 10000 nM | 50 nM | CC(=O)N1CCN(c2nc3n(CC(=O)Nc4ccc(Cl)cc4)c(C)c(N4CCN(C(=O)c5n[nH]c(=O)[nH]5)CC4)c(=O)n3n2)CC1 [Example 8, 2-(2-(4-acetylpiperazin-1-yl)-5-methyl-7-oxo-6-(4-(5-oxo-4,5-dihydro-1H-1,2,4-triazole-3-carbonyl)piperazin-1-yl)-[1,2,4]triazolo[1,5-a]pyrimidin-4(7H)-yl)-N-(4-chlorophenyl)acetamide]
> 10000 nM | 90 nM | CC(=O)N1CCN(c2nc3n(CC(=O)Nc4ccc(Cl)cc4)c(C)c(N4CCN(C(=O)c5[nH]c(=O)[nH]c(=O)c5N)CC4)c(=O)n3n2)CC1 [Example 10, 2-(2-(4-acetylpiperazin-1-yl)-6-(4-(5-amino-2,6-dioxo-1,2,3,6-tetrahydropyrimidine-4-carbonyl)piperazin-1-yl)-5-methyl-7-oxo-[1,2,4]triazolo[1,5-a]pyrimidin-4(7H)-yl)-N-(4-chlorophenyl)acetamide]
